Test results taken from patent publication US11207385B2, “Melanocortins and methods of use thereof” (Aequus Biopharma, Inc., priority 2015, dated 2021).
pEC50: −log10 of the molar value. One block for each compound: values may come before it. Square brackets hold non-standard residues; d marks the D form. Ends that are not written are not given here. Nle = CCCC[C@H](N)C(=O)O

Legend:
[1] = system: plasma corticosterone; test: Steroidogenic effects: corticosterone response in healthy mice (ELISA); assay type: in vivo, Balb/c mice; details: for Mean corticosterone: plasma 1 h after dosing
Procedure: Compositions described herein were administered to Balb/c mice to determine the half-maximal effective concentrations for induction of corticosteroids in healthy mice. Balb/c mice were divided into 13 groups of 4 animals each (Groups 1-13), and each animal was administered a composition at a dosage as indicated in Table 5.
Each animal was injected subcutaneously at 0.2 ml/mouse as in Table 5. One hour after vehicle or test compositions were administered, the mice were anesthetized and exsanguinated into pre-chilled EDTA-treated microtainer tubes (Becton-Dickinson). The whole blood was processed to plasma and assayed by ELISA for corticosterone (Enzo Life Sciences).

[2] = target: T1, MCR2 (Homo sapiens, UniProt Q01718); test: cAMP production (LANCE cAMP assay) in CHO-MCR2 cells; assay type: cell-based
T1 construct: expressed in transfected cells; host or cells: CHO (CHO-MCR2)
Excerpt: The manufacturer's recommended protocol was followed.

[3] = system: murine models of gout (MSU-injected air pouch); test: Murine air pouch model of gout, neutrophil counts and IL-1β in exudate (Example 6); assay type: in vivo, Balb/c mice; details: 3 and 10 nmol/mouse sc 1 h before MSU
Procedure: An air pouch was formed by injecting 6 mL of sterile air using a syringe filter with a 0.22 micron air filter and 23-gauge needle subcutaneously into a shaved skin site on the back of male Balb/c mice (age 6-8 weeks) on Day 0. The wound result from the pouch was allowed to heal for 3 days without any intervention. The pouch was then re-inflated with 3 mL of sterile air on Day 3. Three days after re-inflation on Day 6, compositions described herein were administered via subcutaneous injection 1 hour prior to the administration of 30 mg monosodium urate crystals (MSU) directly into the air pouch to induce an inflammatory response. Four hours after injection of MSU, mice were anesthetized and exsanguinated. Exudate from the air pouch was collected by lavaging the air pouch of each animal with 3 ml of sterile PBS containing 10 U/ml heparin. Analyses performed on exudates include determining neutrophil counts and IL-1β cytokine concentrations. […] 10 • 3) NDP-α-MSH-linker-linker-ACTH1-24, SEQ ID NO. 23 • 4) ACTH1-24-linker-linker-NDP-α-MSH, SEQ ID NO. 26
SEQ ID NOS. […] SEQ ID NO. 23 and SEQ ID NO. […] 10 in reducing neutrophil counts and IL-1β cytokine concentrations in collected exudate, and the arrangement of SEQ ID NO. […] 23.

[4] = target: T2, MCR4 (Homo sapiens, UniProt P32245); test: cAMP production (LANCE cAMP assay) in CHO-MCR4 cells; assay type: cell-based; details: Cell Pool B (partially enriched for MCR expression)
T2 construct: expressed in transfected cells; host or cells: CHO (CHO-MCR4)
Procedure: MCR stimulation in response to polypeptides added to cell culture media was measured by cAMP production via LANCE cAMP assay (Perkin Elmer cat #AD0263).
The manufacturer's recommended protocol was followed. […] To each well was added 5 uL of cell suspension (10,000 CHO-MCR cells per well, with Alexa-labeled antibodies). The mixtures were incubated for 30 minutes at room temperature. Then, to each well was added 10 uL of Detection Mix. The mixtures were incubated for 120 minutes at room temperature. […] This process was repeated for each of CHO-MCR1, CHO-MCR2, CHO-MCR3, CHO-MCR4 and CHO-MCR5 cells.

[5] = Cell Pool B (partially enriched for MCR expression)
[6] = Cell Pool A (partially enriched for MCR expression)

T1 sequence (Q01718 whole entry): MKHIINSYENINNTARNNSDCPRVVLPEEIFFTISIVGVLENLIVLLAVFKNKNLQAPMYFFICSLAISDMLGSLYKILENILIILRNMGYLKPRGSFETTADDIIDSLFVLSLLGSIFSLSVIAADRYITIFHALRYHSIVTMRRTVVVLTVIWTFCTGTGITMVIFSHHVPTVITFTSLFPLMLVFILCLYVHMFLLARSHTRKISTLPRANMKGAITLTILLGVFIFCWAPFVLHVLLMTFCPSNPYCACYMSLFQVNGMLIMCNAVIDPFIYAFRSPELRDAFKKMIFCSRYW
T1 sequence (Q8TCY5 whole entry partner): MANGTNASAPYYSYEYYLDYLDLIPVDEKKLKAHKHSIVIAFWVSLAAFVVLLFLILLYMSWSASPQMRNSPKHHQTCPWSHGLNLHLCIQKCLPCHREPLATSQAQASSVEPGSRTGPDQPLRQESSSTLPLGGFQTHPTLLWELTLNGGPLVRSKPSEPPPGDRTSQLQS
T2 sequence (P32245 whole entry): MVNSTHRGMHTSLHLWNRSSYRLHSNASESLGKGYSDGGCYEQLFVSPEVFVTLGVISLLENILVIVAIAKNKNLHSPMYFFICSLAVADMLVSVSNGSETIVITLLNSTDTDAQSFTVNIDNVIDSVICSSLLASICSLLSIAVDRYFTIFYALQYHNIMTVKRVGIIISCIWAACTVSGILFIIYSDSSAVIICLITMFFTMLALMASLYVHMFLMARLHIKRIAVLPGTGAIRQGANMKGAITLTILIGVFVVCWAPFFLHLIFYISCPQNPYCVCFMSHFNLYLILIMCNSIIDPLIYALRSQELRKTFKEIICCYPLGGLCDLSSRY

Fold change over baseline (corticosterone) ([1]; 0.003 nmol/mouse sc): 0.8
Mean corticosterone ([1]; 0.003 nmol/mouse sc): 863553 pg/mL
Fold change over baseline (corticosterone) ([1]; 0.03 nmol/mouse sc): 1.0
Mean corticosterone ([1]; 0.03 nmol/mouse sc): 116070 pg/mL
Fold change over baseline (corticosterone) ([1]; 0.3 nmol/mouse sc): 1.8
Mean corticosterone ([1]; 0.3 nmol/mouse sc): 149581 pg/mL
Fold change over baseline (corticosterone) ([1]; 1.0 nmol/mouse sc): 3.3
Mean corticosterone ([1]; 1.0 nmol/mouse sc): 264845 pg/mL
Fold change over baseline (corticosterone) ([1]; 3.0 nmol/mouse sc): 3.4
Mean corticosterone ([1]; 3.0 nmol/mouse sc): 488734 pg/mL
Fold change over baseline (corticosterone) ([1]; 10.0 nmol/mouse sc): 4.4
Mean corticosterone ([1]; 10.0 nmol/mouse sc): 514583 pg/mL
effect on plasma corticosterone ([1]; 0.015, 0.15, and 1.5 μg/mouse sc): no significant effect
reduction in plasma corticosterone levels at equally active dose levels ([1]; 3 nanomole SEQ ID NO. 26 versus 10 nanomole SEQ ID NO. 10, healthy mice): 40%
plasma corticosterone levels (significantly increased, not different from each other) ([1]; 5.2-51.5 μg/mouse sc): ~500 ng/mL
Compound: CCCC[C@H](NC(=O)[C@H](CO)NC(=O)[C@H](Cc1ccc(O)cc1)NC(=O)[C@H](CO)NC(=O)[C@H](CO)NC(=O)CNC(=O)CNC(=O)CNC(=O)CNC(=O)[C@H](CO)NC(=O)CNC(=O)CNC(=O)CNC(=O)CNC(=O)[C@@H]1CCCN1C(=O)[C@H](Cc1ccc(O)cc1)NC(=O)[C@@H](NC(=O)[C@H](CCCCN)NC(=O)[C@@H](NC(=O)[C@@H]1CCCN1C(=O)[C@H](CCCNC(=N)N)NC(=O)[C@H](CCCNC(=N)N)NC(=O)[C@H](CCCCN)NC(=O)[C@H](CCCCN)NC(=O)CNC(=O)[C@@H](NC(=O)[C@@H]1CCCN1C(=O)[C@H](CCCCN)NC(=O)CNC(=O)[C@H](Cc1c[nH]c2ccccc12)NC(=O)[C@H](CCCNC(=N)N)NC(=O)[C@H](Cc1ccccc1)NC(=O)[C@H](Cc1c[nH]cn1)NC(=O)[C@H](CCC(=O)O)NC(=O)[C@H](CCSC)NC(=O)[C@H](CO)NC(=O)[C@H](Cc1ccc(O)cc1)NC(=O)[C@@H](N)CO)C(C)C)C(C)C)C(C)C)C(=O)N[C@@H](CCC(=O)O)C(=O)N[C@@H](Cc1c[nH]cn1)C(=O)N[C@H](Cc1ccccc1)C(=O)N[C@@H](CCCNC(=N)N)C(=O)N[C@@H](Cc1c[nH]c2ccccc12)C(=O)NCC(=O)N[C@@H](CCCCN)C(=O)N1CCC[C@H]1C(=O)N[C@H](C(=O)O)C(C)C [SEQ ID NO. 26, ACTH1-24-linker-linker-NDP-α-MSH]
plasma corticosterone after a single subcutaneous injection (dose response, words) ([1]; single sc injection 0.2 ml/mouse, FIG. 14): dose-dependent increase in plasma corticosterone

pEC50 ([2]; Cell Pool C (optimized cell bank)): < 7.00
Compound: CSCC[C@H](NC(=O)[C@H](CO)NC(=O)[C@H](Cc1ccc(O)cc1)NC(=O)[C@@H](N)CO)C(=O)N[C@@H](CCC(=O)O)C(=O)N[C@@H](Cc1c[nH]cn1)C(=O)N[C@@H](Cc1ccccc1)C(=O)N[C@@H](CCCNC(=N)N)C(=O)N[C@@H](Cc1c[nH]c2ccccc12)C(=O)NCC(=O)N[C@@H](CCCCN)C(=O)N1CCC[C@H]1C(=O)N[C@H](C(N)=O)C(C)C [compound 11]

Compound: NDP-α-MSH-linker-linker-ACTH1-24 (Ac-SYS[Nle]EH[dF]RWGKPVGGGGSGGGGSSYSMEHFRWGKPVGKKRRPVKVYP) [SEQ ID NO. 23]
reducing neutrophil counts in collected exudate (comparison in words) ([3]; FIG. 8): more active than SEQ ID NO. 10
reducing IL-1β cytokine concentrations in collected exudate (comparison in words) ([3]; FIG. 9): more active than SEQ ID NO. 10

pEC50 [2, 5]: 9.74
pEC50 [4]: < 7.70
Compound: SYSMEHFRWGKPVGKKRRPVKVYPELTGQRLREGDGPDGPADDGAGASYSMEHFRWGKPV [compound 43]

pEC50 [2, 5]: 9.82
Compound: SYSMEHFRWGKPVGKKRRPVKVYPELTGQRLREGDGPDGPADDGAGASYS[Nle]EH[dF]RWGKPV [compound 40]

pEC50 [2, 5]: 9.82
pEC50 [4]: < 7.70
Compound: SYSMEHFRWGKPVGKKRRPVKVYPPLPEGGPEPRSDGAKPGPREGKRSYSMEHFRWGKPV [compound 42]

pEC50 [2, 5]: 9.74
pEC50 [4]: 8.80
Compound: SYSMEHFRWGKPVGKKRRPVKVYPPLPEGGPEPRSDGAKPGPREGKRSYS[Nle]EH[dF]RWGKPV [compound 39]

pEC50 [2, 6]: 7.59
Compound: YVMGHFRWDRFGKRSYSMEHFRWGKPVGKKRRPVKVYP [compound 1]

pEC50 [2, 5]: < 7.00
pEC50 [4]: < 7.00
Compound: YVMGHFRWDRFGRRNSSSSGSSGAGQKR [compound 9]

pEC50 [2, 6]: < 7.00
Compound: YVMGHFRWDRFGRRNSSSSGSSGAGQSYSMEHFRWGKPVGKKRRPVKVYP [compound 14]

pEC50 [2, 6]: 8.30
Compound: YVMGHFRWDRFGSYSMEHFRWGKPVGKKRRPVKVYP [compound 15]
